Key:
Assay in all cases: CA Activity Assay
Settings in all cases: pH 7.4; 25 °C
Carbonic anhydrase 1 = Carbonic anhydrase 1 (Homo sapiens, UniProt P00915)
Experimental: (§1) The enzymatic reaction, in a total volume of 3.0 mL, contained 1.4 mL 0.05M Tris-SO4 buffer (pH 7.4), 1mL 3 mM 4-nitrophenylacetate, 0.5 mL H2O and 0.1mL enzyme solution. A reference measurement was obtained by preparing the same cuvette without enzyme solution. The inhibitory effects of the sulphonamide derivatives were examined. All compounds were tested in triplicate at each concentration used. Different concentrations of the compounds were used.

Carbonic anhydrase 2 = Carbonic anhydrase 2 (Homo sapiens, UniProt P00918)
Experimental: as §1

Carbonic anhydrase 6 = Carbonic anhydrase 6 (Homo sapiens, UniProt P23280)
Sequence of Carbonic anhydrase 6 (P23280 whole entry): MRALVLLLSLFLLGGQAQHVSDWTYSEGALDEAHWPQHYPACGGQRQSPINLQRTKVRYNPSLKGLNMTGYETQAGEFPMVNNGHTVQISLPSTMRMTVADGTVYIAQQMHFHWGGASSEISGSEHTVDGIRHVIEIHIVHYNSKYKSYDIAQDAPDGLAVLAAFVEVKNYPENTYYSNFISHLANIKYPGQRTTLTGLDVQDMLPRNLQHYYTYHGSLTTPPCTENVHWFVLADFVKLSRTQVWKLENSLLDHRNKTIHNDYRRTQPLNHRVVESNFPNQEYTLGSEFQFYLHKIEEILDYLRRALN
Experimental: as §1

Sequence of Carbonic anhydrase 1 (P00915 whole entry): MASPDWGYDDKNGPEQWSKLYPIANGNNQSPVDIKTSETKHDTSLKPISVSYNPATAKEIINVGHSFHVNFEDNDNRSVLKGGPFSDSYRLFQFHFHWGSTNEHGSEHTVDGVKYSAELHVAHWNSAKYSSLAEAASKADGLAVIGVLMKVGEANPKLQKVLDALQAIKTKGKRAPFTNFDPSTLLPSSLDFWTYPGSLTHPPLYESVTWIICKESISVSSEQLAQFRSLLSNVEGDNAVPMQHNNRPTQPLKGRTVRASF

| Ki (Carbonic anhydrase 1) [µM] | Ki (Carbonic anhydrase 2) [µM] | Ki (Carbonic anhydrase 6) [µM] | SMILES |
| --- | --- | --- | --- |
| 13.7 | 0.228 | 0.943 | CCOC1Oc2ccccc2C(=O)/C1=C\Nc1ccc(S(N)(=O)=O)cc1 (centres undefined) [hCA inhibitor, 1] |
| – | – | 1.21 | Nc1ccc(S(N)(=O)=O)cc1 [aromatic sulfonamide compound 5] |
| – | – | 1.01 | NCc1ccc(S(N)(=O)=O)cc1 [aromatic sulfonamide compound 6] |
| 118 | – | 21.2 | Cc1ccc(S(N)(=O)=O)cc1 |
| 71.2 | 1.86 | 4.28 | CCOC1Oc2c(Br)cc(Br)cc2C(=O)/C1=C\Nc1ccc(S(N)(=O)=O)cc1 (centres undefined) [hCA inhibitor, 4] |
| – | – | 4.11 | NS(=O)(=O)c1ccccc1 |
| 48.1 | 1.13 | 2.24 | CCOC1Oc2c(Br)cccc2C(=O)/C1=C\Nc1ccc(S(N)(=O)=O)cc1 (centres undefined) [hCA inhibitor, 3] |
